Experimental data taken from PubChem BioAssay (NCI).
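At the GI50, growth is halved. TGI marks complete inhibition of growth.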

Key:
Test in all cases: DTP human tumour cell line panel, 384-well format
[1] = system: EKVX NSCLC
[2] = system: CAKI-1 renal
[3] = system: NCI-H522 lung
[4] = system: OVCAR-4 ovarian
[5] = system: SK-MEL-28 melanoma
[6] = system: SK-OV-3 ovarian
[7] = system: SF-268 CNS
[8] = system: SK-MEL-2 melanoma
[9] = system: SW-620 colon
[10] = system: HCC-2998 colon
[11] = system: HOP-62 NSCLC
[12] = system: 786-0 renal
[13] = system: SR leukemia
[14] = system: NCI-H322M lung
[15] = system: HS 578T breast
[16] = system: MCF7 breast
[17] = system: NCI-H460 NSCLC
[18] = system: M14 melanoma
[19] = system: SF-295 CNS
[20] = system: RXF 393 renal
[21] = system: NCI/ADR-RES ovarian
[22] = system: HL-60(TB) leukemia
[23] = system: SNB-19 CNS
[24] = system: T-47D breast
[25] = system: LOX IMVI melanoma
[26] = system: OVCAR-8 ovarian
[27] = system: OVCAR-5 ovarian
[28] = system: MDA-MB-468 breast
[29] = system: SNB-75 CNS
[30] = system: OVCAR-3 ovarian
[31] = system: SK-MEL-5 melanoma
[32] = system: U251 glioblastoma
[33] = system: K-562 leukemia
[34] = system: HCT-116 colon
[35] = system: TK-10 renal
[36] = system: MALME-3M melanoma
[37] = system: UACC-257 melanoma
[38] = system: COLO 205 colon
[39] = system: HCT-15 colon
[40] = system: MDA-MB-435 melanoma
[41] = system: ACHN renal
[42] = system: NCI-H226 lung
[43] = system: KM12 colon
[44] = system: SF-539 CNS
[45] = system: HT29 colon
[46] = system: IGROV1 ovarian
[47] = system: BT-549 breast

CN1CCN(c2ccc(Nc3cc(-c4cccc(-n5ccc6cc(C7CC7)cc(F)c6c5=O)c4CO)cn(C)c3=O)nc2)CC1
GI50 [1]: 2.03 µM | TGI [1]: 4.57 µM | GI50 [2]: 2.18 µM | TGI [2]: 5.6 µM | GI50 [3]: 2.05 µM | TGI [3]: 4.02 µM | GI50 [4]: 1.63 µM | TGI [4]: 3.11 µM | GI50 [5]: 1.71 µM | TGI [5]: 3.11 µM | GI50 [6]: 2.59 µM | TGI [6]: 6.61 µM | GI50 [7]: 2.4 µM | TGI [7]: 7.46 µM | GI50 [8]: 1.8 µM | TGI [8]: 3.34 µM | GI50 [9]: 2.61 µM | TGI [9]: 6.97 µM | GI50 [10]: 2.09 µM | TGI [10]: 5.3 µM | GI50 [11]: 2.77 µM | TGI [11]: 7.57 µM | GI50 [12]: 1.69 µM | TGI [12]: 3.39 µM | GI50 [13]: 1.58 µM | TGI [13]: 2.94 µM | GI50 [14]: 3.91 µM | TGI [14]: 9.99 µM | GI50 [15]: 1.82 µM | TGI [15]: 3.48 µM | GI50 [16]: 1.79 µM | TGI [16]: 4.37 µM | GI50 [17]: 2.06 µM | TGI [17]: 4.14 µM | GI50 [18]: 2.01 µM | TGI [18]: 3.54 µM | GI50 [19]: 2.21 µM | TGI [19]: 4.93 µM | GI50 [20]: 1.6 µM | TGI [20]: 3.11 µM | GI50 [21]: 2.51 µM | TGI [21]: 5.66 µM | GI50 [22]: 1.84 µM | TGI [22]: 3.25 µM | GI50 [23]: 3.96 µM | TGI [23]: 13.5 µM | GI50 [24]: 1.75 µM | TGI [24]: 3.71 µM | GI50 [25]: 2.04 µM | TGI [25]: 3.52 µM | GI50 [26]: 1.79 µM | TGI [26]: 3.56 µM | GI50 [27]: 1.94 µM | TGI [27]: 3.97 µM | GI50 [28]: 1.7 µM | TGI [28]: 3.16 µM | GI50 [29]: 1.73 µM | TGI [29]: 3.44 µM | GI50 [30]: 1.79 µM | TGI [30]: 3.28 µM | GI50 [31]: 1.62 µM | TGI [31]: 3.02 µM | GI50 [32]: 2.2 µM | TGI [32]: 4.54 µM | GI50 [33]: 1.77 µM | TGI [33]: 3.33 µM | GI50 [34]: 1.71 µM | TGI [34]: 3.26 µM | GI50 [35]: 2.32 µM | TGI [35]: 5.77 µM | GI50 [36]: 1.86 µM | TGI [36]: 3.27 µM | GI50 [37]: 1.74 µM | TGI [37]: 3.13 µM | GI50 [38]: 2.02 µM | TGI [38]: 3.69 µM | GI50 [39]: 2.45 µM | TGI [39]: 7.4 µM | GI50 [40]: 3.59 µM | TGI [40]: 11.7 µM | GI50 [41]: 1.6 µM | TGI [41]: 3.01 µM | GI50 [42]: 1.99 µM | TGI [42]: 4.03 µM | GI50 [43]: 2.4 µM | TGI [43]: 5.1 µM | GI50 [44]: 1.71 µM | TGI [44]: 3.14 µM | GI50 [45]: 1.72 µM | TGI [45]: 3.19 µM | GI50 [46]: 2.89 µM | TGI [46]: 9.19 µM | GI50 [47]: 2.24 µM | TGI [47]: 5.29 µM

O=C(NC[C@H](O)CN1CCc2ccccc2C1)c1cc(NC2COC2)ncn1
GI50 [1]: > 100 µM | TGI [1]: > 100 µM | GI50 [2]: > 100 µM | TGI [2]: > 100 µM | GI50 [3]: > 100 µM | TGI [3]: > 100 µM | GI50 [4]: 21.8 µM | TGI [4]: > 100 µM | GI50 [5]: > 100 µM | TGI [5]: > 100 µM | GI50 [6]: > 100 µM | TGI [6]: > 100 µM | GI50 [7]: > 100 µM | TGI [7]: > 100 µM | GI50 [8]: > 100 µM | TGI [8]: > 100 µM | GI50 [9]: > 100 µM | TGI [9]: > 100 µM | GI50 [10]: > 100 µM | TGI [10]: > 100 µM | GI50 [11]: > 100 µM | TGI [11]: > 100 µM | GI50 [12]: > 100 µM | TGI [12]: > 100 µM | GI50 [13]: 0.117 µM | TGI [13]: 8.35 µM | GI50 [14]: > 100 µM | TGI [14]: > 100 µM | GI50 [15]: > 100 µM | TGI [15]: > 100 µM | GI50 [16]: > 41.5 µM | TGI [16]: > 100 µM | GI50 [17]: 6 µM | TGI [17]: > 100 µM | GI50 [18]: > 100 µM | TGI [18]: > 100 µM | GI50 [19]: > 100 µM | TGI [19]: > 100 µM | GI50 [20]: > 100 µM | TGI [20]: > 100 µM | GI50 [21]: > 100 µM | TGI [21]: > 100 µM | GI50 [22]: > 28.3 µM | TGI [22]: > 100 µM | GI50 [23]: > 100 µM | TGI [23]: > 100 µM | GI50 [24]: 4.97 µM | TGI [24]: > 100 µM | GI50 [25]: > 100 µM | TGI [25]: > 100 µM | GI50 [26]: > 100 µM | TGI [26]: > 100 µM | GI50 [27]: > 100 µM | TGI [27]: > 100 µM | GI50 [28]: > 100 µM | TGI [28]: > 100 µM | GI50 [29]: > 100 µM | TGI [29]: > 100 µM | GI50 [30]: > 69.1 µM | TGI [30]: > 100 µM | GI50 [31]: > 100 µM | TGI [31]: > 100 µM | GI50 [32]: > 100 µM | TGI [32]: > 100 µM | GI50 [33]: > 100 µM | TGI [33]: > 100 µM | GI50 [34]: > 100 µM | TGI [34]: > 100 µM | GI50 [35]: > 100 µM | TGI [35]: > 100 µM | GI50 [36]: > 100 µM | TGI [36]: > 100 µM | GI50 [37]: > 100 µM | TGI [37]: > 100 µM | GI50 [38]: > 100 µM | TGI [38]: > 100 µM | GI50 [39]: > 100 µM | TGI [39]: > 100 µM | GI50 [40]: > 100 µM | TGI [40]: > 100 µM | GI50 [41]: > 100 µM | TGI [41]: > 100 µM | GI50 [42]: > 100 µM | TGI [42]: > 100 µM | GI50 [43]: > 42.7 µM | TGI [43]: > 100 µM | GI50 [44]: > 100 µM | TGI [44]: > 100 µM | GI50 [45]: > 100 µM | TGI [45]: > 100 µM | GI50 [46]: > 100 µM | TGI [46]: > 100 µM | GI50 [47]: > 100 µM | TGI [47]: > 100 µM
